These results are taken from patent US12389905B2, “Synergistic mixture of plant defense inductors” (LIDA PLANT RESEARCH S.L., priority 2018, dated 2025).

Read-outs that look alike come from different tables or passages of the source.

Assay type in all cases: in vivo
For experiment [1], the system named is PR1 (PATHOGENESIS-RELATED PROTEIN 1) gene. Briefly: PR1 gene expression (qPCR) in sprayed Arabidopsis thaliana plants. To be noted: 37.5 ppm.
Experiment [2] deals with Pseudomonas syringae pv. Lachrymans on cucumber. Briefly: Bacterial spot on cucumber, greenhouse disease control. To be noted: Test 4; spray; 100 ppm. Here is the method: The experiments were carried out under controlled greenhouse conditions. The effects of temperature, humidity and light conditions in the greenhouse chambers were adjusted according to host plants and pathogens needs.
The efficacy or disease control value (W) was calculated according to Abbott's formula: W=(1−x/y)×100 wherein • x=percentage of fungal or bacterial infection in treated plants • y=percentage of fungal or bacterial infection in untreated control plants
An efficacy of 0 means the infection level of the treated plants corresponds to that of the untreated control plants; and efficacy of 100 means that the treated plants are not infected.
In order to evaluate if there is a synergistic effect between different possible combinations, Limpel/Colby's formula was used.
Synergy Factor (F)=OV(A+B)/CEV(A+B) 1. Podosphaera xanthii on Cucumber
1.2-leaf stage cucumber plants (cv. Suzunari-suyo), grown in pots under controlled conditions, were treated by spraying of the leaves with the mixture in question, dispersed in an aqueous solution. After 2 days, plants were inoculated and infected with an aqueous suspension of Pseudomonas syringae pv. Lachrymans (1×10^8 cfu/ml), and they were kept in a growth chamber at 25° C. and 90% RH. 7 days after pathogen inoculation, infection levels were assessed and percentages of disease control and expected values were calculated according to Abbott's and Colby's formulas, respectively.

In experiment [3] the test system is Pyricularia oryzae on rice. To be noted: soil drench.
Experiment [4] has as its system Pseudomonas cannbina pv. alisalensis on Chinese cabbage. To be noted: leaf spray.
For experiment [5], the system named is Colletotrichum orbiculare on cucumber. Briefly: Anthracnose on cucumber, greenhouse disease control. To be noted: spray; 100 ppm.

In the case of `CSC(=O)c1cccc2nnsc12` [Acibenzolar-S-methyl, acibenzolar-S-methyl], the “PR1 gene activation OV A or B (single component)” value amounted to 32.19 n-fold in experiment [1] (24 hpt) and 72.31 n-fold in experiment [1] (48 hpt). The results for the “Percentage of disease control OV A or B (single component)” value in experiment [2] and in experiment [5] were 86% and 92%, respectively. The “Percentage of disease control B” value in experiment [3] (Test 2, B alone 4 ppm) amounted to 29%; in experiment [3] (Test 2, B alone 10 ppm), 49%; in experiment [3] (Test 2, B alone 20 ppm) it was 87%; in experiment [3] (Test 2, B alone 40 ppm), 83%; in experiment [3] (Test 2, B alone 100 ppm) it was 70%; in experiment [3] (Test 3, B alone 100 ppm), 71%. Further, the “Percentage of disease control B” value was 71% in experiment [3] (Test 4, B alone 100 ppm); 85% in experiment [4] (Combinations with Carrageenan, Test 1, B alone 100 ppm); 5% in experiment [4] (Combinations with Chitooligosaccharides, Test 2, B alone 4 ppm); 18% in experiment [4] (Combinations with Chitooligosaccharides, Test 2, B alone 10 ppm); 12% in experiment [4] (Combinations with Chitooligosaccharides, Test 2, B alone 20 ppm); 84% in experiment [4] (Combinations with Chitooligosaccharides, Test 2, B alone 40 ppm). The “Percentage of disease control B” value in experiment [4] (Combinations with Chitooligosaccharides, Test 2, B alone 100 ppm) came to 89%; in experiment [4] (Combinations with Chitooligosaccharides, Test 3, B alone 10 ppm), 35%; in experiment [4] (Combinations with Chitooligosaccharides, Test 3, B alone 20 ppm), 17%; in experiment [4] (Combinations with Chitooligosaccharides, Test 3, B alone 40 ppm), 95%; in experiment [4] (Combinations with Chitooligosaccharides, Test 3, B alone 100 ppm), 98%.
